This is an account of results in ChEMBL document CHEMBL4819113, “Chemical modifications of ergostane-type triterpenoids from Antrodia camphorata and their cytotoxic activities” (Bioorg Med Chem Lett, 2021).

In data set [1] the test system is U-251. The data set can be described thus: Cytotoxicity against human U-251 cells by MTT assay. The format is functional, cell-based. In general terms: Formazan colour is commonly taken as a measure of viable cells.
For data set [2], the system named is HL-60. Description: Cytotoxicity against human HL-60 cells by MTT assay. Type of data set: functional, cell-based.
The test system of data set [3] is SW480. Description: Cytotoxicity against human SW480 cells by MTT assay. The format is functional, cell-based.
Data set [4] relates to MCF7. The data set can be described thus: Cytotoxicity against human MCF7 cells by MTT assay. Type of data set: functional, cell-based.
Data set [5] relates to L02. Description: Cytotoxicity against human L02 cells by MTT assay. The format is cell-based.
Data set [6] concerns HL-60. The data set can be described thus: Cytotoxicity against human HL-60 cells. Type of data set: functional, cell-based.
In data set [7] the test system is U-251. The data set can be described thus: Cytotoxicity against human U-251 cells. The format is functional, cell-based.
Data set [8] deals with SW480. The data set can be described thus: Cytotoxicity against human SW480 cells. The format is functional, cell-based.
The subject of data set [9] is MCF7. The data set can be described thus: Cytotoxicity against human MCF7 cells. The format is functional, cell-based.

Broadly, the IC50 is the concentration that inhibits the measured activity by half. For `C=C(CC[C@@H](C)[C@H]1CC[C@H]2C3=C(C(=O)C[C@]12C)[C@@]1(C)CCC(=O)[C@@H](C)[C@@H]1C[C@H]3OC(C)=O)[C@H](C)C(=O)Nc1[nH]cnc1C(N)=O`, the half-inhibitory concentration (IC50) in data set [1] is 17.1 µM; in data set [2] it was over 100 µM; in data set [3], 17.9 µM; in data set [4], 17.6 µM.
As to `C=C(CC[C@@H](C)[C@H]1CC[C@H]2C3=C(C(=O)C[C@]12C)[C@@]1(C)CC/C(=N\O)[C@@H](C)[C@@H]1C/C3=N/O)[C@H](C)C(=O)OC`, the 50% inhibitory concentration (IC50) amounted to 3.3 µM in data set [1], 3.7 µM in [2], 2.2 µM in data set [3] and 18.2 µM in [4]. Moreover, in [5], the Activity entry is “Non-Toxic”.
In the same order, the values of `C=C(CC[C@@H](C)[C@H]1CC[C@H]2C3=C(C(=O)C[C@]12C)[C@@]1(C)CCC(=O)[C@@H](C)[C@@H]1C[C@H]3OC(C)=O)[C@H](C)C(=O)Nc1ncc2ccccc2n1` are 2.9 µM, 8.9 µM, 40.8 µM, 8.6 µM and “Non-Toxic”.
As to `C=C(CC[C@@H](C)[C@H]1CC[C@H]2C3=C(C(=O)C[C@]12C)[C@@]1(C)CCC(=O)[C@@H](C)[C@@H]1C[C@H]3OC(C)=O)[C@H](C)C(=O)Nc1ccc2ccccc2n1`, the IC50 is 95.8 µM in [1], 96.3 µM in data set [2], over 100 µM in data set [3] and over 100 µM in [4].
`C=C(CC[C@@H](C)[C@H]1CC[C@H]2C3=C(C(=O)C[C@]12C)[C@@]1(C)CCC(=O)[C@@H](C)[C@@H]1C[C@H]3OC(C)=O)[C@H](C)C(=O)Nc1ccc2[nH]ccc2c1`: the 50% inhibitory concentration (IC50) in data set [1] was 10.4 µM; in [2], over 100 µM; in [3], over 100 µM; in data set [4], 12.3 µM.
As for `C=C(CC[C@@H](C)[C@H]1CC[C@H]2C3=C(C(=O)C[C@]12C)[C@@]1(C)CCC(=O)[C@@H](C)[C@@H]1C[C@H]3OC(C)=O)[C@H](C)C(=O)OC`, the IC50 is 16.8 µM in data set [6], 11.4 µM in data set [7], 15.4 µM in data set [8] and 46.3 µM in data set [9].
In the same order, the values of `C=C(CC[C@@H](C)[C@H]1CC[C@H]2C3=C(C(=O)C[C@]12C)[C@@]1(C)CCC(=O)[C@@H](C)[C@@H]1CC3=O)[C@H](C)C(=O)OC` are 25.2 µM, 44.9 µM, over 100 µM and 50.7 µM.
With `C=C(CC[C@@H](C)[C@H]1CC[C@H]2C3=C(C(=O)C[C@]12C)[C@@]1(C)CCC(=O)[C@@H](C)[C@@H]1C[C@H]3OC(C)=O)[C@H](C)C(=O)/N=c1/cc(CCc2ccccc2)[nH][nH]1`, the IC50 in data set [1], in [2], in data set [3] and in data set [4] was over 100 µM throughout.
Turning to `C=C(CC[C@@H](C)[C@H]1CC[C@H]2C3=C(C(=O)C[C@]12C)[C@@]1(C)CCC(=O)[C@@H](C)[C@@H]1C[C@H]3OC(C)=O)[C@H](C)C(=O)Nc1cccc2cccnc12`, the concentration for half-maximal inhibition (IC50) in data set [1] was over 100 µM; in data set [2], 89.2 µM; in [3], over 100 µM; in [4], over 100 µM.
As to `C=C(CC[C@@H](C)[C@H]1CC[C@H]2C3=C(C(=O)C[C@]12C)[C@@]1(C)CCC(=O)[C@@H](C)[C@@H]1C[C@H]3OC(C)=O)[C@H](C)C(=O)Nc1nc[nH]n1`, the IC50 in data set [1] is 93.2 µM; in [2], over 100 µM; in data set [3], over 100 µM; in [4] it was over 100 µM.
Regarding `C=C(CC[C@@H](C)[C@H]1CC[C@H]2C3=C(C(=O)C[C@]12C)[C@@]1(C)CCC(=O)[C@@H](C)[C@@H]1C[C@H]3OC(C)=O)[C@H](C)C(=O)O`, the IC50 in data set [6], in [7], in data set [8] and in data set [9] was over 100 µM each time.
For `C=C(CC[C@@H](C)[C@H]1CC[C@H]2C3=C(C(=O)C[C@]12C)[C@@]1(C)CCC(=O)[C@@H](C)[C@@H]1C[C@H]3OC(C)=O)[C@H](C)C(=O)Nn1cnnc1`, the concentration for half-maximal inhibition (IC50) in data set [1] was 82.4 µM; in [2], over 100 µM; in [3], over 100 µM; in data set [4], over 100 µM.
`C=C(CC[C@@H](C)[C@H]1CC[C@H]2C3=C(C(=O)C[C@]12C)[C@@]1(C)CCC(=O)[C@@H](C)[C@@H]1C[C@H]3OC(C)=O)[C@H](C)C(=O)Nc1ccccc1N`: the IC50 in data set [1] is 27.4 µM; in data set [2], 0.7 µM; in data set [3], over 100 µM; in data set [4], 29.2 µM. Besides, the Activity entry in data set [5] is reported as “Non-Toxic”.
On to `C=C(CC[C@@H](C)[C@H]1CC[C@H]2C3=C(C(=O)C[C@]12C)[C@@]1(C)CCC(=O)[C@@H](C)[C@@H]1CC3=O)[C@H](C)C(=O)O` [ANTCIN B], for which the IC50 in [6], in data set [7], in data set [8] and in data set [9] was over 100 µM throughout.
`CC(=O)O[C@H]1C(=O)[C@@]2(C)[C@H]([C@H](OC(=O)c3ccccc3)[C@]3(O)C[C@H](OC(=O)[C@H](O)[C@@H](NC(=O)c4ccccc4)c4ccccc4)C(C)=C1C3(C)C)[C@]1(OC(C)=O)CO[C@@H]1C[C@@H]2O` [PACLITAXEL] gave a half-inhibitory concentration (IC50) in [2] of 0.08 µM. This counts as double-digit nanomolar.
